From patent US20230365602A1, “COMPOUND FOR USE IN THE TREATMENT OF PROTOZOAL DISEASES AND PROCESS FOR PRODUCTION OF SAID COMPOUND” (QUADREL S.R.L., priority 2020, published 2023)
Entries after “also recorded” stand apart in the source; their conditions may differ. Where two headings read alike, the source gives them in different places.

Key:
[1] = Toxicity MTT assay in PMA-differentiated THP-1 cells; assay type: cell-based, human; conditions: human, PMA-differentiated THP-1 cells (macrophages); for CC50: THP-1 macrophages, Table 1, read-out: Toxicity CC50 ± SD or NOAEL; for IC50: Table 4b, read-out: Cytotoxicity THP-1 (IC50)
From the text: (§1) The in vitro antiparasitic activity against L. infantum (MHOM/MA/67/ITMAP-263) and the toxicity against THP-1 macrophages is presented in Table 1.

[2] = tested on: mitochondria; assay: Early toxicity: mitochondrial toxicity; assay type: cell-based; conditions: for % mitochondrial toxicity: 10 μM, 100% mitotoxic, 0% not mitotoxic; for mitochondrial toxicity: Table 4b
[3] = biological target: CYP3A4 (Homo sapiens, UniProt P08684); assay: Early toxicity: CYP3A4 inhibition; assay type: in vitro ADME; conditions: Table 4a; for inhibition at 10 µM: human, read-out: % inhibition CYP3A4
[4] = biological target: CYP2C19 (Homo sapiens, UniProt P33261); assay: Early toxicity: CYP2C19 inhibition; assay type: in vitro ADME; conditions: Table 4a; for inhibition at 10 µM: human
[5] = biological target: CYP2D6 (Homo sapiens, UniProt P10635); assay: Early toxicity: CYP2D6 inhibition; assay type: in vitro ADME; conditions: Table 4a; for inhibition at 10 µM: human
[6] = tested on: A549; assay: Early toxicity: A549 cell growth; assay type: cell-based; conditions: 10 μM; 100% = not cytotoxic, 0% = cytostatic, −100% = cytotoxic
[7] = biological target: CYP2C9 (Homo sapiens, UniProt P11712); assay: Early toxicity: CYP2C9 inhibition; assay type: in vitro ADME; conditions: mean ± SD, Table 4a; for inhibition at 10 µM: human
[8] = biological target: hERG channel (Homo sapiens, UniProt Q12809); assay: Early toxicity: hERG inhibition; conditions: for inhibition at 10 µM: human
[9] = tested on: L. infantum (MHOM/MA/67/ITMAP-263) intracellular amastigotes; assay: Anti-parasitic activity against L. infantum intracellular amastigotes (infection with axenic amastigotes luciferase positive); assay type: cell-based; conditions: Table 1; for inhibition at 10 µM / IC50: Leishmania infantum; for inhibition at 10 µM: read-out: Single Dose Assay 10 μM Mean Inhibitory Activity (%) ± SD; for IC50: read-out: Dose Response Curves IC50 ± SD; for Selectivity Index CC50/IC50 or NOAEL/IC50: THP-1 toxicity / L. infantum IC50
[10] = biological target: T1, CYP1A2 (Homo sapiens, UniProt P05177); assay: Early toxicity: CYP1A2 inhibition; assay type: in vitro ADME; conditions: mean ± SD, Table 4a; for inhibition at 10 µM: human
T1 sequence (P05177 1-516): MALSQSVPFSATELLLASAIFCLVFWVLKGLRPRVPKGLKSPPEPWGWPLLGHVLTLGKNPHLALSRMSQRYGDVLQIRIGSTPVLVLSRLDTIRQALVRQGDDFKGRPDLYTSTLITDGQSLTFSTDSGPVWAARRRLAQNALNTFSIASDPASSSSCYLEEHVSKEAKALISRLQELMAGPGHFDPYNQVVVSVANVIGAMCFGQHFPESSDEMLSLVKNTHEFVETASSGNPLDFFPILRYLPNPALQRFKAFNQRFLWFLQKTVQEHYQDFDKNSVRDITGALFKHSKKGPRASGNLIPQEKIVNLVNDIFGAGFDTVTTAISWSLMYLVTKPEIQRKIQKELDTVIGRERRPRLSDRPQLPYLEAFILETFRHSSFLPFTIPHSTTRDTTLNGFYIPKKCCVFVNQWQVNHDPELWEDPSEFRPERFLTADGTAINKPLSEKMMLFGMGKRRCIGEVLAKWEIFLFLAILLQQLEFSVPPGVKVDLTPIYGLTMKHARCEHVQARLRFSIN

[11] = tested on: PMA-differentiated THP-1 cells; assay: Toxicity MTT assay in PMA-differentiated THP-1 cells; assay type: cell-based, human; conditions: for CC50: read-out: Toxicity CC50 ± SD or NOAEL
From the text: as §1

[12] = tested on: T. b. brucei L427 WT Blood-Stream Form; assay: Anti-parasitic activity against T. b. brucei blood-stream form (resazurin 72 h assay); assay type: cell-based; conditions: Table 2; for inhibition at 10 µM: Trypanosoma brucei, read-out: Single Dose Assay 10 μM Mean Inhibitory Activity (%) ± SD
[13] = tested on: W1-38; assay: Early toxicity: W1-38 cell growth; assay type: cell-based; conditions: 10 μM
[14] = tested on: T. b. brucei GVR35; assay: Stage II HAT mice model, live imaging; assay type: in vivo
[15] = Snapshot pharmacokinetics in plasma after oral gavage; assay type: in vivo, mice; conditions: mouse, plasma, po, healthy BALB/c mice, 20 mg/kg gavage, Table 13
Description: Pharmacology of 5-cyclopentadecylpentyl (2-(trimethylammonio)ethyl) phosphate (19) in mice.
Blood samples were collected from the tail vein at 0, 0.5, 0.75, 1, 3, 24 and 72 hours into heparinized tubes. Moreover, biodistribution of the molecule, 72h after administration, was determined in several organs of the treated mice, namely brain, liver, spleen, kidney, heart and bone marrow. […] J Chromatogr B, 865: 55-62) by liquid chromatography mass spectrometry (LC-MS/MS).

Sequence of CYP3A4 (P08684 whole entry): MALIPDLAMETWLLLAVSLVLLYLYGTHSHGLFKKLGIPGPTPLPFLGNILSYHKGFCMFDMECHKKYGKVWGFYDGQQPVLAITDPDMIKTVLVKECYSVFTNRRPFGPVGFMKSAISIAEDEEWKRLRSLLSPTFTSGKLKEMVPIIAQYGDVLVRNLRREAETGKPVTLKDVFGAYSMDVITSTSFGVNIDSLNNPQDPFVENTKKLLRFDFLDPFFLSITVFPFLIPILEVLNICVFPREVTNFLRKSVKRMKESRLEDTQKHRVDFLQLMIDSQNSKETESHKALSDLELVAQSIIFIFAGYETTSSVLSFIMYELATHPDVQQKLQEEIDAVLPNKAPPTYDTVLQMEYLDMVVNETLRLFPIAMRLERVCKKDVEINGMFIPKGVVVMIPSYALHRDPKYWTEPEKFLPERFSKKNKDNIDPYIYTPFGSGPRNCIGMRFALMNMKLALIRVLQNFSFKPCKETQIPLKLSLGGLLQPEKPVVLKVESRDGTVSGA
Sequence of CYP2D6 (P10635 whole entry): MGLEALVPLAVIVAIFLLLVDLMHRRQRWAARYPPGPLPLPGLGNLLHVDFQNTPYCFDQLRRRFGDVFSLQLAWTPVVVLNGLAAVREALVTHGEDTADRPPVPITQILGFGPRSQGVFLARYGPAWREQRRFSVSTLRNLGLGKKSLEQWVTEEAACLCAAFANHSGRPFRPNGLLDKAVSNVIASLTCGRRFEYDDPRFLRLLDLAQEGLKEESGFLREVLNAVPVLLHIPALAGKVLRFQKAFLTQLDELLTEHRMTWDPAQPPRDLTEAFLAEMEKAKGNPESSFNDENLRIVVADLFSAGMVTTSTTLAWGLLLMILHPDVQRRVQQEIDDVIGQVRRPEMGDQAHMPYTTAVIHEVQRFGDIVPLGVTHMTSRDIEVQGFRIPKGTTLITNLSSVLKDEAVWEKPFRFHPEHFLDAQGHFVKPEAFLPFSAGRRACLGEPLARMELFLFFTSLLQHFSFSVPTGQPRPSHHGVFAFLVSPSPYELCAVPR
Sequence of hERG channel (Q12809 whole entry): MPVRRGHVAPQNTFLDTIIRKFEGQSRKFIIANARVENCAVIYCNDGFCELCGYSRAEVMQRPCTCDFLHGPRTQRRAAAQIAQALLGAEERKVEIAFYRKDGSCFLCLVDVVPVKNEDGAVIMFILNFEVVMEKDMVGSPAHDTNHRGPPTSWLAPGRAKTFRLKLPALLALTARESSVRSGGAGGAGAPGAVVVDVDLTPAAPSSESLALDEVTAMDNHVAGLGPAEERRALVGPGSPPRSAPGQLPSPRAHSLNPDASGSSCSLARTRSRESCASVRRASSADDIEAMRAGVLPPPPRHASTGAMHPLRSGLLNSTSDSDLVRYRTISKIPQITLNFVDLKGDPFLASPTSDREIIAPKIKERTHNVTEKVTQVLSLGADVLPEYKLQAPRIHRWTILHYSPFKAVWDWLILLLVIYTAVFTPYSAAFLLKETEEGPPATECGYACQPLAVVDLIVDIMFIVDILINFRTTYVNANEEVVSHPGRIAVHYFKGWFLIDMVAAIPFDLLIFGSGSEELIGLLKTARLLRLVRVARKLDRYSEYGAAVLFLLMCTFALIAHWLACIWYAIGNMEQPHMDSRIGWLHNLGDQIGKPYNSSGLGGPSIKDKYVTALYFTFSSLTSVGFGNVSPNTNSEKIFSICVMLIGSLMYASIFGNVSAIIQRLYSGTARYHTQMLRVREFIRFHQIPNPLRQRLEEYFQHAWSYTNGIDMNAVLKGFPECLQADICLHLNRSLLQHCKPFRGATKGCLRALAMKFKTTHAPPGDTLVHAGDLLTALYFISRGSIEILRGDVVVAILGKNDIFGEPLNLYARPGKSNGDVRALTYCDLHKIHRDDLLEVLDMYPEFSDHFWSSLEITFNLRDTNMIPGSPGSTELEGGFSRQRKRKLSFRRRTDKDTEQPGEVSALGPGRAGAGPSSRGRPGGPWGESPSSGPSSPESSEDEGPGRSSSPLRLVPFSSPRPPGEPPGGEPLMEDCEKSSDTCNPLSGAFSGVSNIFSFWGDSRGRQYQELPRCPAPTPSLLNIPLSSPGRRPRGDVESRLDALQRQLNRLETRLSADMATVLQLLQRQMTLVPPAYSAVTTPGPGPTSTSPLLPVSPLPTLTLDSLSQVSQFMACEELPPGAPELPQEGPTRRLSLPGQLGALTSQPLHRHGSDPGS
Sequence of CYP2C19 (P33261 whole entry): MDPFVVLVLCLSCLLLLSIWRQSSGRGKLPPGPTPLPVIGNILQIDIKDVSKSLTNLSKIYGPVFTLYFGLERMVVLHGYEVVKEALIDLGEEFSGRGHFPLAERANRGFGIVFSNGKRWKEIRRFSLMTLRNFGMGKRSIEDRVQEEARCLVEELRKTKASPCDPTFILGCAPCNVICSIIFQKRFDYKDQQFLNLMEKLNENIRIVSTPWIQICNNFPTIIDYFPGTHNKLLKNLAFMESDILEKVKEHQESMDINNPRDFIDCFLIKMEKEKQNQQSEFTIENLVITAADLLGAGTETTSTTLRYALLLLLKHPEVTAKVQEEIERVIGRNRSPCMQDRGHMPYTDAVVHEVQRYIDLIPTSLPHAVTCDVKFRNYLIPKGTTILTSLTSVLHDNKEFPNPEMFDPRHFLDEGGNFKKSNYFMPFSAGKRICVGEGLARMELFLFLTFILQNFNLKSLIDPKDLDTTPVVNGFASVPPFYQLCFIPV
Sequence of CYP2C9 (P11712 whole entry): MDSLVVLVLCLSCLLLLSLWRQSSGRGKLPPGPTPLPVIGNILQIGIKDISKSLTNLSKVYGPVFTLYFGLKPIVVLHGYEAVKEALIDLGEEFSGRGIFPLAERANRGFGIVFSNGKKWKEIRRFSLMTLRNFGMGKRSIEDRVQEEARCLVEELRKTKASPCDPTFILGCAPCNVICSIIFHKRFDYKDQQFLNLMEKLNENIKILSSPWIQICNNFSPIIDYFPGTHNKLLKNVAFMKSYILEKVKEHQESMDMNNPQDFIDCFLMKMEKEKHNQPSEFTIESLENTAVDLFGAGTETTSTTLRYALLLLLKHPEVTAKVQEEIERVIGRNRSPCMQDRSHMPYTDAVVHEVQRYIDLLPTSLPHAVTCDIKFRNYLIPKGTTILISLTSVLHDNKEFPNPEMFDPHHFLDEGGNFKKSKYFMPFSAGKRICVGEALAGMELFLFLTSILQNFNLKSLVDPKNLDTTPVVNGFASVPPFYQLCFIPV

Row | Compound | CC50 [1] | IC50 [1] | % mitochondrial toxicity [2] | mitochondrial toxicity [2] | inhibition at 10 µM ([3]; 10 μM, mean ± SD) | inhibition at 10 µM ([4]; mean ± SD) | inhibition at 10 µM ([5]; mean ± SD) | % cell growth A549 [6] | inhibition at 10 µM [7] | Flag for Interference, hERG ([8]; Table 4b) | inhibition at 10 µM [8] | inhibition at 10 µM ([9]; 10 μM) | IC50 [9] | Selectivity Index CC50/IC50 or NOAEL/IC50 [9] | inhibition at 10 µM [10] | CC50 ([11]; Table 2) | inhibition at 10 µM ([12]; 10 μM) | further results
1 | C[N+](C)(C)CCOP(=O)([O-])OCCC1CCCCCCCCCCCCCC1 [Compound 28, 2-cyclopentadecylethyl (2-(trimethylammonio)ethyl) phosphate] | > 100 µM | > 100 µM | 119.09 ± 14.82% | exhibit mitochondrial toxicity | 27.8 ± 1.95% | 21.3 ± 3.7% | 37.7 ± 3.27% | 120.79 ± 0.63% | 9.6 ± 4.6% | (no) | 39 ± 5.84% | 70 ± 7% | 1.12 ± 0.45 µM | >90 | 15.6 ± 2.12% |  |  | 
2 | C[N+](C)(C)CCCOP(=O)([O-])OCCCCC=C1CCCCCCCCCCCCCC1 [Compound 15, 5-cyclopentadecylidenepentyl (3-(trimethylammonio)propyl) phosphate] | > 100 µM | > 100 µM | 1.08 ± 12.57% |  | 23.4 ± 1.94% | 42 ± 7.27% | 32.4 ± 2.88% | 112.20 ± 6.11% | 15.6 ± 6.17% | (no) | 15.5 ± 4.66% | 49 ± 1% |  |  | 9.44 ± 2.84% | > 100 µM | 14 ± 5% | % cell growth W1-38 [13]: 124.02 ± 7.42%
3 | C[N+](C)(C)CCOP(=O)([O-])OCCC1CCCCCCCCCCC1 [Compound 27, 2-cyclododecylethyl (2-(trimethylammonio)ethyl) phosphate] | > 100 µM | > 100 µM | 113.87 ± 2.81% |  | 24.8 ± 3.15% | 11 ± 5.72% | 6.92 ± 4.21% | 126.46 ± 6.12% | 13.7 ± 6.52% | (no) | -4.11 ± 10.4% | 36 ± 5% |  |  | 22.2 ± 1.59% |  |  | 
4 | C[N+](C)(C)CCOP(=O)([O-])OCCCCC1CCCCCCCCCCC1 [Compound 16, 4-cyclododecylbutyl (2-(trimethylammonio)ethyl) phosphate] | > 100 µM |  |  |  |  |  |  |  |  |  |  | 87 ± 17% | 0.86 ± 0.33 µM | >116 |  | > 100 µM |  | 
5 | C[N+](C)(C)CCOP(=O)([O-])OCCCCC=C1CCCCCCCCCCC1 [Compound 12, 5-cyclododecylidenepentyl (2-(trimethylammonio)ethyl) phosphate] | > 100 µM | > 100 µM | 113.57 ± 12.08% | exhibit mitochondrial toxicity | 35.7 ± 6.01% | 11.2 ± 5.4% | 15.1 ± 2.98% | 130.21 ± 5.63% | 1.76 ± 1.59% | (no) | -2.04 ± 7.61% | 95 ± 2% | 0.9 ± 0.7 µM | >111 | 10.2 ± 5.03% | > 100 µM | 8 ± 8% | 
6 | Nc1nc(N)nc(Nc2ccc([As]3SCC(CO)S3)cc2)n1 (centres unmarked) [melarsoprol, reference compound] |  |  |  |  |  |  |  |  |  |  |  |  |  |  |  |  |  | infection outcome (words) ([14]; 10 mg/kg/day IP, 7 days of treatment): able to clear the infection
7 | C[N+](C)(C)CCCOP(=O)([O-])OCCCCCC1CCCCCCCCCCCCCC1 [Compound 20, 5-cyclonentadecyloentyl (3-(trimethylammonio)propyl) phosohate] |  |  | −3.82 ± 5.49% |  |  |  |  | 104.50 ± 4.67% |  | (no) |  |  |  |  |  | > 100 µM |  | CC50 ([11]; THP-1 macrophages, Table 1): > 100 µM; IC50 ([11]; Table 4b, read-out: Cytotoxicity THP-1 (IC50)): > 100 µM; Single Dose Assay 10 μM Mean Inhibitory Activity (%) ± SD ([12]; 10 μM): 24 ± 10%; % cell growth W1-38 [13]: 98.77 ± 10.61%; % inhibition CYP3A4 ([3]; 10 μM, mean ± SD): 22.83 ± 5.05%; % inhibition CYP2C19 ([4]; 10 μM, mean ± SD): 52.28 ± 5.17%; % inhibition CYP2D6 ([5]; 10 μM, mean ± SD): 44.01 ± 3.51%; % inhibition CYP2C9 ([7]; 10 μM): 15.44 ± 0.53%; % inhibition hERG ([8]; 10 μM, Table 4b): 4.56 ± 15.55%; Single Dose Assay 10 μM Mean Inhibitory Activity (%) ± SD ([9]; 10 μM): 53 ± 6%; % inhibition CYP1A2 ([10]; 10 μM): 10.14 ± 3.87%
8 | N=C(N)c1ccc(OCCCCCOc2ccc(C(=N)N)cc2)cc1 [pentamidine, reference compound] |  |  |  |  |  |  |  |  |  |  |  |  |  |  |  |  |  | infection in the brain ([14]; 5 mg/kg/day IP): not able to clear infection in the brain
9 | C[N+](C)(C)CCOP(=O)([O-])OCCCCCC1CCCCCCCCCCC1 [Compound 17, 5-cyclododecylpentyl (2-(trimethylammonio)ethyl) phosphate] | > 100 µM | > 100 µM | 110.46 ± 13.08% | exhibit mitochondrial toxicity | 55.3 ± 4.28% | 35.9 ± 4.97% | 48.9 ± 2.97% | 121.61 ± 8.94% | 10.3 ± 6.3% | (no) | 26.3 ± 12.9% | 96 ± 2% | 0.6 ± 0.2 µM | >166 | 18.9 ± 0.69% | > 100 µM | 21 ± 15% | activity against T. b. brucei blood-stream form [12]: unexpectedly high activity in the low micromolar range; CYP3A4 interaction [3]: interact; AUC(0-inf) ([15]; read-out: AUC (0-∞)): 11300 ng·h/mL; AUC(0-inf) ([15]; read-out: AUC (0-∞) (μM h/mL)): 26.9 µM·h; Cmax ([15]; read-out: Cmax): 4.88 µM; Cmax ([15]; read-out: Cmax (μg/mL)): 2.05 µg/mL; Tmax ([15]; read-out: tmax): 3 h; half-life ([15]; read-out: t½ (converted)): 6.9 h; CYP2C19 interaction / inhibition ([4]; 10 μM): interact; also recorded: significant inhibition; CYP2D6 interaction / inhibition ([5]; 10 μM): interact; also recorded: significant inhibition
10 | C[N+](C)(C)CCOP(=O)([O-])OCCCC=C1CCCCCCCCCCC1 [Compound 11, 4-cyclododecylidenebutyl (2-(trimethylammonio)ethyl) phosphate] | > 100 µM |  |  |  |  |  |  |  |  |  |  | 76 ± 22% | 2.59 ± 0.94 µM | >38.6 |  | > 100 µM |  | 
